Data taken from US11173160B2 (UNIVERSITY OF PITTSBURGH—OF THE COMMONWEALTH SYSTEM OF …, priority 2019, dated 2021).
Entries after “also recorded” stand apart in the source; their conditions may differ. Read-outs that look alike come from different tables or passages of the source.

Columns and labels:
Fms = Fms (Homo sapiens, UniProt P07333); settings: Source Millipore; 10-point titration in duplicates, done once; cited from earlier work
[1] = system: DIPG-007 and DIPG-IV cells; test: Annexin-PI flow cytometry apoptosis assay; format: cell-based, human; settings: 48 h, vs DMSO vehicle control
Method: (§1) FIGS. 5A-5K provide that pharmacological inhibition of ERK5 triggered cell death and apoptosis in DIPG cells. […] (5C-5E).
Apoptosis was quantified using the Pacific Blue Annexin V Apoptosis Detection Kit with propidium iodide (BioLegend, San Diego, Calif. Cat #640926). Analysis was performed at the Flow Cytometry Core, Rangos Research Center, UPMC Children's Hospital of Pittsburgh.

JAK1 = JAK1 (Homo sapiens, UniProt P23458); settings: Source Invitrogen; 10-point titration in duplicates, done once; cited from earlier work
JAK1, sequence (P23458 whole entry): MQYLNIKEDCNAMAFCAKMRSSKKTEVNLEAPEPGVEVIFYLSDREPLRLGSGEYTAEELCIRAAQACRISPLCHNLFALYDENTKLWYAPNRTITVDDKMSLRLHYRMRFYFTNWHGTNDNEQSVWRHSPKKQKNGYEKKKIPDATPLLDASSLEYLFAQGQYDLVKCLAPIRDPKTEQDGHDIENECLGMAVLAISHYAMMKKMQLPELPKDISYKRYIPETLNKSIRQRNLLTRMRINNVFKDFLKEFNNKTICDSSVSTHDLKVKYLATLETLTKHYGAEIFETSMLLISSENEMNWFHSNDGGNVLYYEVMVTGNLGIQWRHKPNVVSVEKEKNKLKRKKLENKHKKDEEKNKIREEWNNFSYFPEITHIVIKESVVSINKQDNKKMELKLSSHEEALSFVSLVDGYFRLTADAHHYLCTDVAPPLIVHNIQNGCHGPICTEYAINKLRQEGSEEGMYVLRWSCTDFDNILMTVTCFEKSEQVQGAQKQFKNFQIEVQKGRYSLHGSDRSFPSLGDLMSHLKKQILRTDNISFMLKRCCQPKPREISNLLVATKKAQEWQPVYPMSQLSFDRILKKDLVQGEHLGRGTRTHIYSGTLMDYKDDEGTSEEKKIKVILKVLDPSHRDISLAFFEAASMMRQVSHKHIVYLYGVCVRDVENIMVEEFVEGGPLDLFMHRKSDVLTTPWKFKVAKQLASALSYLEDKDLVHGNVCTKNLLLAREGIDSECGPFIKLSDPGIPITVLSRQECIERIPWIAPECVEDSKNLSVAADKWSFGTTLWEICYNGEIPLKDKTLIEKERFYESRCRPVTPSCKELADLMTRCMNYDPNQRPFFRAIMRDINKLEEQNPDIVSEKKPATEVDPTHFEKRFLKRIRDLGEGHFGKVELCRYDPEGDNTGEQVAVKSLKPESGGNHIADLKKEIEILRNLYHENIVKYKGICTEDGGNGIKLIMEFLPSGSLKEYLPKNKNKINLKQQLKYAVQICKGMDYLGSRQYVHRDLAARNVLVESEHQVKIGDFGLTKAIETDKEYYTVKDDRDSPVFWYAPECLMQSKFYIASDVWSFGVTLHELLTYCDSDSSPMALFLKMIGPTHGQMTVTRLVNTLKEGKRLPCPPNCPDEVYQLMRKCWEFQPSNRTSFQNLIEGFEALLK

Abl = Abl (Homo sapiens, UniProt P00519); settings: cited from earlier work
PDGFRβ = PDGFRβ (Homo sapiens, UniProt P09619); settings: cited from earlier work
Src = Src (Homo sapiens, UniProt P12931); settings: cited from earlier work
ZAP-70 = ZAP-70 (Homo sapiens, UniProt P43403); settings: cited from earlier work
ZAP-70, sequence (P43403 whole entry, species assumed): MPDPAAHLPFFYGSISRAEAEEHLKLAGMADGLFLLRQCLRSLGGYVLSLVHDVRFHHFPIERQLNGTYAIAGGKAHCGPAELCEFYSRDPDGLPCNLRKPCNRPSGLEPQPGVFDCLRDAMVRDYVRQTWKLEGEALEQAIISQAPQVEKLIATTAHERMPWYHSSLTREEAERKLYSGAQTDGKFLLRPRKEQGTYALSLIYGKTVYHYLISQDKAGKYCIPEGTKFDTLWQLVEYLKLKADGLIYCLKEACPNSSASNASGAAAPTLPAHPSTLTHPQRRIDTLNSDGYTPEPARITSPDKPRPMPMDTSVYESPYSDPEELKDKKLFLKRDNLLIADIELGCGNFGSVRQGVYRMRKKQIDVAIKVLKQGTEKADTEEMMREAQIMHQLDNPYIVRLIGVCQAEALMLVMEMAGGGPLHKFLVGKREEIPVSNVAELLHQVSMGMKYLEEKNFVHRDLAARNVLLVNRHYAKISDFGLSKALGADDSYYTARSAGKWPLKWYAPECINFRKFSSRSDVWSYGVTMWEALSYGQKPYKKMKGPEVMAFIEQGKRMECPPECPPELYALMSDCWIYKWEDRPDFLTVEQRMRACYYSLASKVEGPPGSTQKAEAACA

CDK3 = CDK3 (Homo sapiens, UniProt Q00526); settings: Source Millipore; 10-point titration in duplicates, done once; cited from earlier work
CDK3, sequence (Q00526 whole entry): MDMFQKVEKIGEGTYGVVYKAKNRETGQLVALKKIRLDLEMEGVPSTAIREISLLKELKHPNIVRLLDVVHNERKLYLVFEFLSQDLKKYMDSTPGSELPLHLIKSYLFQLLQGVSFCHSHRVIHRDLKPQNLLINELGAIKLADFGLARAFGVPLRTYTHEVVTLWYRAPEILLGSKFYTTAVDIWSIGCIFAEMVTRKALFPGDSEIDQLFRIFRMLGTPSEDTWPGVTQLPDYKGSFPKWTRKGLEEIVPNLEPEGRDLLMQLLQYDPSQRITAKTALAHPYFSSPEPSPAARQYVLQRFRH
CDK3, sequence (P24864 whole entry partner): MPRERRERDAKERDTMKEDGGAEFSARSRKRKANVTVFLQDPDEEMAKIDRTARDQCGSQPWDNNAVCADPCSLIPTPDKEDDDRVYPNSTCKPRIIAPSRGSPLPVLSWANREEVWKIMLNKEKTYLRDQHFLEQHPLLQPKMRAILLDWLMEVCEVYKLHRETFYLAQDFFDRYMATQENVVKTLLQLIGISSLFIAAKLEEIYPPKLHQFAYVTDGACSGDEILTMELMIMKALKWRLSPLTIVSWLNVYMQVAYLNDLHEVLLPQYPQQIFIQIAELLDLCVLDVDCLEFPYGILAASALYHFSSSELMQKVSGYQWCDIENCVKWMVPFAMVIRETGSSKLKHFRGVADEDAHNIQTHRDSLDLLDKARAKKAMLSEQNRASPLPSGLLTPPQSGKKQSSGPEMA

four DIPG cell lines = test: viability of DIPG cell lines treated in vitro with TG02; format: cell-based, human
Method: (§2) Direct cell counts were performed using the Countess II FL Automated Cell Counter (ThermoFisher Scientific). Alamar blue viability (ThermoFisher Scientific) and the 5-bromo-2′-deoxyuridine (BrdU) incorporated cell proliferation assay (Cell Signaling Technology Cat #6813) were performed using the manufacturer's standard protocol. EC50 curve analysis was performed using raw fluorescent Alamar blue values that were inputted into PRISM 7.0. Drug concentrations were log 10 transformed and values normalized to percent viability with respect to vehicle treated cells. EC50 values were interpolated from a log inhibitor vs. normalized response with variable slope using a least square fit model.

Pim-3 = Pim-3 (Homo sapiens, UniProt Q86V86); settings: cited from earlier work
[2] = system: six adult patient-derived glioblastoma cell lines (e.g., BT228, BT286, BT145); test: radiation therapy and TG02 in adult glioblastoma cell lines; format: cell-based, human; settings: TG02 between 100 and 250 nM
Method: Cell viability was assessed on Day 5.

CK1α1 = CK1α1 (Homo sapiens, UniProt P48729); settings: cited from earlier work
CK1α1, sequence (P48729 whole entry): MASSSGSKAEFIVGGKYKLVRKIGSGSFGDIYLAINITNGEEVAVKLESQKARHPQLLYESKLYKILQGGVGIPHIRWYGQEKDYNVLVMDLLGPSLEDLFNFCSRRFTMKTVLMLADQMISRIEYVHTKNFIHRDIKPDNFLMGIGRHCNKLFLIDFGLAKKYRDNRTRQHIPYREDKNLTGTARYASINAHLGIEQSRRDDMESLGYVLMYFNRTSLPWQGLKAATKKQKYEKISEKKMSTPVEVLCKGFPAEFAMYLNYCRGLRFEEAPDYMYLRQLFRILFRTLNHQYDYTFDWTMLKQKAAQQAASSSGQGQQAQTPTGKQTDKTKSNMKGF

PKCε = PKCε (Homo sapiens, UniProt Q02156); settings: cited from earlier work
[3] = system: DIPG-007, DIPG-IV, and SF8628 cells; test: direct Trypan-Blue automated cell count; format: cell-based, human; settings: 50 nM of TG02, 9 days of treatment, vs vehicle
Method: as §1, §2

TAK1 = TAK1 (Homo sapiens, UniProt O43318); settings: cited from earlier work
TAK1, sequence (O43318 1-303 limits assumed): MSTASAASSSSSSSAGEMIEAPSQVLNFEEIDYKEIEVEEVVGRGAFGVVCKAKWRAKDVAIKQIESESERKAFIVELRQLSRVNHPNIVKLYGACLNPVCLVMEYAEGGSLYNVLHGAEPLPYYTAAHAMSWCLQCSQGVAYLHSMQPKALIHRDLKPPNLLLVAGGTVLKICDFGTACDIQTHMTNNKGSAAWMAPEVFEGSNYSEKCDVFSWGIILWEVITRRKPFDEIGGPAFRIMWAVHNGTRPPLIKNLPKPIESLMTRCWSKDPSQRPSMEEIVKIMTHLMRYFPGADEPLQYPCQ

FAK = FAK (Homo sapiens, UniProt Q05397); settings: cited from earlier work
FAK, sequence (Q05397 whole entry): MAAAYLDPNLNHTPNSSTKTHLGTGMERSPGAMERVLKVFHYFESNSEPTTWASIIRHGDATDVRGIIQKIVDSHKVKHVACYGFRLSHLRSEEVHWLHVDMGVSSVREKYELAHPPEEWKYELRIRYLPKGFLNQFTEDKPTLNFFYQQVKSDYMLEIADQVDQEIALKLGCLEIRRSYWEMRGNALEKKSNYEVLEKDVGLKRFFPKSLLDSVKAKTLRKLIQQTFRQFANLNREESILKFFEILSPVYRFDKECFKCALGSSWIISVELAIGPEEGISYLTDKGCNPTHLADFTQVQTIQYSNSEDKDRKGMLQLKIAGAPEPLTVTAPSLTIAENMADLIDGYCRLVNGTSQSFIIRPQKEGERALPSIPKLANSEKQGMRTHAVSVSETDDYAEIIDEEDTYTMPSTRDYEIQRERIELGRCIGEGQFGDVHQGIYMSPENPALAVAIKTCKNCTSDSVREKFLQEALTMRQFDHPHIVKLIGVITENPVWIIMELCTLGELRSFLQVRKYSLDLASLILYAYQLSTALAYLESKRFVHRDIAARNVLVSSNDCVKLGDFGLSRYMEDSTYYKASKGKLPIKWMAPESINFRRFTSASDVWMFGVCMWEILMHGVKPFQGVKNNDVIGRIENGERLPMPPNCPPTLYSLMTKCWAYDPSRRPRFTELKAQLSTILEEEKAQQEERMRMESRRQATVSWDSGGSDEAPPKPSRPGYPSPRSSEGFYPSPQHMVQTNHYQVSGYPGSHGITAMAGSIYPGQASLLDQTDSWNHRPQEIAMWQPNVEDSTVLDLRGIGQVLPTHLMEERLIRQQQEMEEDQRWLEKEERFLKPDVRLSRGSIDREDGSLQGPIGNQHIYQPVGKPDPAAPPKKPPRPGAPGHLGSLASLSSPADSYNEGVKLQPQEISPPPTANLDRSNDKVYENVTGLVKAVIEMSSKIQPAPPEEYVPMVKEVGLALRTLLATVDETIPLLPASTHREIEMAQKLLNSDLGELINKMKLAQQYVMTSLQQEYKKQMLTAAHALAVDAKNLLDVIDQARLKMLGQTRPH

[4] = system: DIPG-IV cells overexpressing ERK5 and constitutively active ERK5; test: EC50 of TG02 in DIPG-IV cells expressing ERK5-HA or ERK5-HA T733E; format: cell-based, human
Method: as §2

CaMKVI = CaMKVI (Homo sapiens, UniProt Q16566); settings: cited from earlier work
[5] = system: SF8628 intracranial xenografts; test: SF8628 orthotopic xenograft model; format: in vivo, mice; settings: for KI-67 staining (proliferation marker): 20 mg/kg, vs vehicle
Method: All animal procedures were carried out ethically according to animal user protocols approved by Institutional Animal Care Committee (IACUC). 4-6 week-old non-obese diabetic severe combined immune deficiency male or female mice (NOD-SCID-Prkdc^scid) were injected with 1×10^5 SU-DIPG-13p cells or 1×10^5 SF8628 DIPG cells. Cells were re-suspended in 2 μl of PBS and injected into the pons/midbrain using a stereotactic frame (Stoelting) and automated cell injector (Stoelting) with cells delivered over 4 minutes. Coordinates were as follows from the Lambda suture (x=0.8 mm, y=−0.8 mm, z=−5.0 mm). […] Mice were treated for two cycles (5 days on, with two days off per cycle). Mice were sacrificed at sign of neurological duress and brains were extracted and fixed in 4% PFA.
Also, the present disclosure used two established cell lines derived from transgenic mouse models of DIPG. Both lines are p53 null and express PDGFB, differing only in their H3.3 mutation status.
In a first DIPG mouse model, NOD-SCID gamma mice were injected with 2×10^5 SF8628 cells in the midbrain.
For each cycle, the compounds were administered 20 mg/kg/day for 5 days, followed with 2 days of rest period. Each mice received 2 cycles of treatment.

Chk1 = Chk1 (Homo sapiens, UniProt O14757); settings: cited from earlier work
JAK2 = JAK2 (Homo sapiens, UniProt O60674); settings: Source Invitrogen; 10-point titration in duplicates, done once; cited from earlier work
CYP3A4 = CYP3A4 (Homo sapiens, UniProt P08684); settings: cited from earlier work
CYP3A4, sequence (P08684 whole entry): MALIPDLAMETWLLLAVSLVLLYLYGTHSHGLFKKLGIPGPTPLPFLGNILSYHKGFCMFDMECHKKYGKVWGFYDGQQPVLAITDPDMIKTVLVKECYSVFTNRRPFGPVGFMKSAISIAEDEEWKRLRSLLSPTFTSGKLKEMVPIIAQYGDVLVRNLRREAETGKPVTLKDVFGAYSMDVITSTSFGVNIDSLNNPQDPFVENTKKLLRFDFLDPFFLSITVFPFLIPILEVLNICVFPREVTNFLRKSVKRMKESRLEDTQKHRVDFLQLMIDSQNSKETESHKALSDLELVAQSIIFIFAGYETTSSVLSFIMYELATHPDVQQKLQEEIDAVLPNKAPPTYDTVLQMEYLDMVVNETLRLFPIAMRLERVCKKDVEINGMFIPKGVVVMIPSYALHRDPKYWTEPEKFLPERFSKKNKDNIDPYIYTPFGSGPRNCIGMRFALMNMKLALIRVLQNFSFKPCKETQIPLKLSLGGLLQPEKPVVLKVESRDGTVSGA

SMILES: CN1C/C=C/CCOc2cccc(c2)-c2ccnc(n2)Nc2cccc(c2)C1 [TG02, (16E)-14-methyl-20-oxa-5,7,14,27-tetraazatetracyclo[19.3.1.12,6.18,12]heptacosa-1(25),2(27),3,5,8(26),9,11,16,21,23-decaene]
- IC50 (Fms): 27 nM
- apoptosis (Annexin-PI) [1]: significantly higher rates of apoptosis; also recorded: increased populations in early apoptosis
- viable cells (Annexin negative, PI negative) [1]: decreased viable cells
- IC50 (JAK1): 59 nM
- inhibition at 100 nm (Abl): less than 50%
- inhibition at 100 nm (PDGFRβ): less than 50%
- inhibition at 100 nm (Src): less than 50%
- inhibition at 100 nm (ZAP-70): less than 50%
- IC50 (CDK3): 8 nM
- IC50 (four DIPG cell lines; Homo sapiens, read-out: IC50 of TG02 in vitro against DIPG cell lines, approximate): ~100 nM
- EC50 (four DIPG cell lines; Homo sapiens, median of four DIPG cell lines in vitro, read-out: median EC50 (decreased viability)): 75 nM
- EC50 (four DIPG cell lines; Homo sapiens, range over four DIPG cell lines in vitro, read-out: EC50 range (decreased viability)): 60 to 93 nM
- apoptosis (four DIPG cell lines; four DIPG cell lines in vitro): increased apoptosis
- inhibition at 100 nm (Pim-3): less than 50%
- effect of combining radiation therapy (RT) and TG02 [2]: mostly a synergistic effect
- inhibition at 100 nm (CK1α1): less than 50%
- inhibition at 100 nm (PKCε): less than 50%
- cell number [3]: significant decreases in cell number
- inhibition at 100 nm (TAK1): less than 50%
- inhibition at 100 nm (FAK): less than 50%
- EC50 ([4]; Homo sapiens, read-out: EC50 to treatment with TG02, overexpression of ERK5 and constitutively active ERK in DIPG-IV cells): > 1000 nM
- cleaved Caspase 3/7 levels ([4]; TG02 100 nM, ERK5-HA or ERK5-HA T733E vs empty vector): reduced cleaved Caspase 3/7 levels
- inhibition at 100 nm (CaMKVI): less than 50%
- KI-67 staining (proliferation marker) ([5]; 2 cycles): reduced KI-67 staining
- KI-67 staining (proliferation marker) ([5]; 2 cycles, listed as TG02 obtained from Adastra Pharmaceuticals): significantly reduced KI67 expression; also recorded: significantly reduced K167 expression
- survival vs vehicle ([5]; 20 mg/kg/day for 5 days, 2 days rest, 2 cycles): statistically significant increased median survival
- median survival ([5]; TG02 20 mg/kg, 2 cycles of 5 days on 2 days off, vehicle 33 days): 59 days
- extension of median survival time ([5]; mice intracranially engrafted with DIPG cells): nearly two-fold
- inhibition at 100 nm (Chk1): less than 50%
- IC50 (JAK2): 19 nM
- substrate of CYP3A4 (CYP3A4): substrate
